Where “and” joins values, the source holds several entries; their conditions need not be identical. Equal entries are not always repeated. Where two headings read alike, the source gives them in different places.
Tests used:
[1] = Urinary excretion study after intravenous administration; format: in vivo, Sprague-Dawley (SD) rats; settings: IV 5 mg/kg; for excretion amount in urine: rat
Procedure: (§1) Eighteen male SD rats were housed in the barrier rodent facilities to acclimatize for a week in animal quarters, which had air conditioning and an automatically controlled photoperiod of 12 h of light daily. Rats had free access to standard chow diet and water until 12 h prior to the beginning of the experiment, at which time only water was accessed freely. The rats were randomly divided into six groups, with three rats in each group.
(§2) A series of calibration standard working solutions (20.0, 10.0, 2.0, 1.0, 0.2, 0.04, and 0.02 μg/ml) was prepared freshly by diluting the stock solution stepwise using ACN-water (70:30, v/v). […] The IS working solutions of 200 ng/ml of tolbutamide or 50 ng/ml of diclofenac sodium were prepared by dilution of the stock standard solution with acetonitrile solution. All the solutions were stored at 4°C and brought to room temperature before use.
(§3) QC samples (3, 40, 800, and 1,600 ng/ml) were prepared separately. For PDG urine samples, the calibration standards were prepared by spiking 5 μL of the appropriate standard working solutions of PDG to 95 μL blank rat urine to prepare the final urine concentration of PDG ranging from 1 ng/ml to 2000 ng/ml. QC samples (3, 40, 800, and 1,600 ng/ml) were prepared separately. […] QC samples (15, 30, 400, and 1,600 ng/ml) were prepared separately.
Urine samples were collected while the rats remained isolated in metabolic cages at intervals of 0, 2, 4, 8, 24, and 30 h after administration, and the volumes of the urine were measured. The urine samples were also stored at −20°C before tested by LC-MS/MS. For the urine calibration standards, QC urine samples, and the testing urine samples, 100 µL of the urine samples were extracted with 300 µL of methyl tert-butyl ether (MTBE) by vortex mixing for 1 min and centrifuged at 4°C for 10 min at 13,000 rpm. Then, 200 µL of the supernatant was separated and evaporated under a gentle stream of nitrogen. The residue was reconstituted with 120 µL of 30% ACN with 5 µL of IS working solution ([…]), followed by vortex mixing for 10 min.
(§4) Linear gradient elution was performed with certain portions of 10 mM ammonium acetate-water solution containing 0.1% formic acid (mobile phase A) and methanol (mobile phase B). The detailed conditions have been described in Support Materials (Supplementary Table S5).

[2] = Kinetic solubility test in PBS; format: physicochemical; settings: phosphate-buffer saline (PBS)
Procedure: Internal standard (IS) solutions (propranolol and tolbutamide) were dissolved by acetonitrile (50 ng/ml propranolol + 200 ng/ml tolbutamide).
The sample solutions were analyzed using LC-MS/MS. All the samples (test samples and references) for detection were prepared in duplicate. The conditions for LC-MS/MS are shown in Support Materials (Supplementary Table S1).

[3] = Pharmacokinetic study in rat plasma after intravenous and oral administration; format: in vivo, Sprague-Dawley (SD) rats; settings: for Cmax / AUC(0-t) / Tmax / AUC(0-inf) / MRT inf / Cl_pred / HL_Lambda_z / Vz_pred: rat plasma; for AUC(0-inf): read-out: AUCINF_pred; for MRT inf: read-out: MRTINF_pred
Procedure: as §1, §2, §3
Blood samples were collected via orbital venous plexus puncture into heparinized microfuge tubes at intervals of 0, 0.083, 0.25, 0.5, 1, 2, 4, 8, 10, 24, and 30 h after administration. The plasma samples were obtained by centrifuging the blood samples at 6,000 rpm for 10 min at 4°C and storing them at −20°C until further analysis. For the plasma calibration standards, QC plasma samples, and the testing plasma samples, 40 µL of the plasma samples were extracted with 120 µL of IS working solution (tolbutamide) by vortex mixing for 1 min and at 4°C centrifugation for 10 min at 13,000 rpm. The supernatant was separated and evaporated under a gentle stream of nitrogen. The residue was reconstituted with 120 µL of 30% ACN followed by vortex mixing. Then, the solutions were centrifuged at 13,000 rpm for 10 min at 4°C.
as §4
In the ADME properties and pharmacokinetics studies, data are presented as mean ± standard deviation (SD). Statistically significant differences were analyzed by one-way ANOVA or Student’s t-test. The level of significance was set at p < 0.05. The LC/MS/MS data were collected and analyzed by Analyst 1.6.1 (AB Sciex). Pharmacokinetic analyses were performed by non-compartmental methods using Phoenix WinNolin version 6.3 (Pharsight Corporation, Mountain View, CA, United States).

[4] = Plasma protein binding rate, rapid equilibrium dialysis, rat plasma; format: in vitro ADME; settings: 37°C
Procedure: In brief, the unbound drugs (or references) were separated from plasma (human and rat) in a 96-well plate with a semipermeable membrane through which only unbound drug can permeate. The equilibrium unit was sealed and incubated at 37°C in a mixer at 100 rpm for 4 h.
Then, 50 ng/ml of midazolam and 50 ng/ml of tolbutamide (in acetonitrile) were used as IS.
After reaching equilibrium, the concentrations of the samples in both the plasma and the buffer compartment were determined. According to the specification, the resultant supernatant was collected, properly diluted by distilled water, vortexed for 10 min, and finally analyzed using LC-MS/MS. All the samples (PDG, PINL, diclofenac, and propranolol) for detection were prepared in duplicate.
The concentrations of the samples were determined by internal standard methods, in which the data were acquired and analyzed by Analyst 1.6.1 software station (AB Sciex Corporation, Boston, MA, United States). The equation of plasma protein binding rate is calculated as follows: Free drug rate (%)=CB/CA×100% (3) Plasma protein binding rate (%)=100%−Free drug rate(%) (4) C B is the drug concentration in dialysis chamber, and C A is the drug concentration in the sample chamber.

[5] = male, Sprague-Dawley, IV 5 mg/kg, n = 3
[6] = male, Sprague-Dawley, PO 40 mg/kg, n = 3

## COc1cc(C2OCC3C(c4ccc(OC5OC(CO)C(O)C(O)C5O)c(OC)c4)OCC23)ccc1OC1OC(CO)C(O)C(O)C1O (single isomer, unassigned; (+)) [PDG, (+)-1-pinoresinol 4,4′-di-O-β-D-glucopyranoside]
[1]; rat urine, for 30 h
  cumulative urinary excretion, % of the dose: approximately 78.24%
[1]; rat urine, within 30 h, n = 3
  Cumulative Excretion Amount: 807,789.5 ± 65,828.8 ng
[1]; 0–2 h, n = 3
  excretion amount in urine: 503,669.8 ± 292,869.4 ng
[1]; 2–4 h, n = 3
  excretion amount in urine: 274,878.3 ± 236,625.8 ng
[1]; 4–8 h, n = 3
  excretion amount in urine: 989.1 ± 1,053.6 ng
[1]; 8–24 h, n = 3
  excretion amount in urine: 2,596.9 ± 1776.4 ng
[1]; 24–30 h, n = 3
  excretion amount in urine: 245.1 ± 173.0 ng
[1]; Wash, n = 3
  excretion amount in urine: 25,410.3 ± 5,874.3 ng
[2]; aqueous buffer, kinetic from dmso stock, PBS (100 mM, pH 7.4)
  solubility kinetic: 99.5 ± 14 µg/mL
[2]; aqueous buffer, kinetic from dmso stock, PBS (pH 7.4), μg/ml value expressed in µM
  solubility kinetic: ~146 µM
[2]; PBS (pH 7.4), μg/ml value expressed in µM
  solubility kinetic: > 100 µM
[3]; male, Sprague-Dawley, plasma, rat, from AUClast of IV 5 mg/kg and PO 40 mg/kg, read-out: absolute oral bioavailability (F%)
  bioavailability: ~0.19%
[3]; male, Sprague-Dawley, rat, plasma, iv, 5 mg/kg, IV 5 mg/kg, n = 3, read-out: Cmax
  Cmax: 13300 ng/mL
[3]; male, Sprague-Dawley, rat, plasma, iv, 5 mg/kg, IV 5 mg/kg, ng/ml value expressed in molar units, read-out: Cmax
  Cmax: 19.6 µM
[3]; male, Sprague-Dawley, rat, plasma, po, 40 mg/kg, PO 40 mg/kg, n = 3, read-out: Cmax
  Cmax: 45.3 ± 37.5 ng/mL
[3]; male, Sprague-Dawley, rat, plasma, po, 40 mg/kg, PO 40 mg/kg, ng/ml value expressed in molar units, read-out: Cmax
  Cmax: 0.0665 µM
[3]; [5]
  AUC(0-t): 7470 ng·h/mL
  Tmax: 6 min
  AUC(0-inf): 7470 ng·h/mL
  MRT inf: 30.6 ± 5.4 min
[3]; [6]
  AUC(0-t): 113 ± 122 ng·h/mL
  Tmax: 30 min
  AUC(0-inf): 121 ± 129 ng·h/mL
  MRT inf: 114 ± 57 min
[3]; IV 5 mg/kg, n = 3
  Cl_pred: 0.69 ± 0.15 L/h/kg
  HL_Lambda_z: 2.0 ± 0.5 h
  Vz_pred: 1.98 ± 0.43 L/kg
[3]; IV 5 mg/kg, n = 3, 5 mg/kg
  Cmax: 13,328.57 ± 1,625.4 ng/ml
[3]; PO 40 mg/kg, n = 3
  Cl_pred: 653.9 ± 492.6 L/h/kg
  Vz_pred: 777.0 ± 392.4 L/kg
[3]; PO 40 mg/kg, n = 3, 40 mg/kg
  HL_Lambda_z: 1.15 h and 1.15 ± 0.75 h
[4]
  fraction unbound at 4 h, 10 µM: 0.623

Source: publication PMC8381248 (Frontiers in Pharmacology, 2021)
